Here are results for six compounds from patent US20050054559A1, “Compounds for sustained release of orally delivered drugs” (priority 2000, published 2005).

Data set [1] has as its target T1, Aminopeptidase 1 (Streptomyces griseus subsp. griseus, UniProt P80561).
T1 construct: purchased Sigma A-9934
The data set is described as follows: Aminopeptidase stability. It counts as in vitro ADME. Conditions: substrate 5.0 μM, no cofactors, pH 8.0, 37° C. On the procedure:
Aminopeptidase Stability: Aminopeptidase 1 (Sigma catalog # A-9934) was diluted in deionised water to a concentration of 856 units/mL. Stability studies were conducted by incubating prodrug (5 μM) with 0.856 units/mL aminopeptidase 1 in 50 mM Tris-HCl buffer at pH 8.0 and 37° C. Concentrations of intact prodrug and released drug were determined at zero time and 60 minutes using LC/MS/MS.
Concentrations of (2), (4), (7g) or Phe-Gabapentin in tissue extracts were determined by direct injection onto an API 2000 LC/MS/MS equipped with an Agilent 1100 binary pump and autosampler. Separation was achieved using a 3.5 μm Zorbax Ellipse XDB-C8 4.4×150 mm column heated to 45° C. during the analysis. The mobile phases were: 0.1% formic acid in water (A) and 0.1% formic acid in acetonitrile (B). The gradient condition was: 2% B for 0.5 min, increasing to 90% B in 2.0 min, maintained for 2.5 min and returning to 2% B for 2 min. A TurbolonSpray source was used on the API 2000. The analysis was performed in the positive ion mode and MRM transitions of 709.5/172.1 and 172.0/137.2 were used in the analysis of Cholyl-Phe-Gabapentin (7g) and gabapentin (2) respectively. Ten microliters of the sample extracts were injected. Peaks were integrated using Analyst quantitation software. The method was linear for (7g) or (2) over the concentration range 0.01 to 12.5 μg/mL and 0.002 to 2.5 μg/mL respectively.

Data set [2] can be described thus: In vitro enzymatic release in rat plasma. Particulars: substrate 2.0 μM, no cofactors, 37° C.
Data set [3] can be described thus: In vitro enzymatic release in human liver S9. Conditions: Human Liver S9 (0.5 mg/mL); substrate 2.0 μM; NADPH; 37° C.
Data set [4] can be described thus: Caco-2 homogenate S9 stability. It counts as in vitro ADME. Particulars: substrate 5.0 μM, no cofactors, 37° C. On the procedure:
Caco-2 Homogenate S9 Stability. Caco-2 cells were grown for 21 days prior to harvesting. Culture medium was removed and cell monolayers were rinsed and scraped off into ice-cold 10 mM sodium phosphate/0.15 M potassium chloride, pH 7.4. Cells were lysed by sonication at 4° C. using a probe sonicator. Lysed cells were then transferred into 1.5 mL centrifuge vials and centrifuged at 9000 g for 20 min at 4° C. The resulting supernatant (Caco-2 cell homogenate S9 fraction) was aliquoted into 0.5 mL vials and stored at −80° C. until used.
For stability studies, prodrug (5 μM) was incubated in Caco-2 homogenate S9 fraction (0.5 mg protein per mL) for 60 min at 37° C. Concentrations of intact prodrug and released drug were determined at zero time and 60 minutes using LC/MS/MS.
Concentrations of (2), (4), (7g) or Phe-Gabapentin in tissue extracts were determined by direct injection onto an API 2000 LC/MS/MS equipped with an Agilent 1100 binary pump and autosampler. Separation was achieved using a 3.5 μm Zorbax Ellipse XDB-C8 4.4×150 mm column heated to 45° C. during the analysis. The mobile phases were: 0.1% formic acid in water (A) and 0.1% formic acid in acetonitrile (B). The gradient condition was: 2% B for 0.5 min, increasing to 90% B in 2.0 min, maintained for 2.5 min and returning to 2% B for 2 min. […] Peaks were integrated using Analyst quantitation software. […]

Data set [5] is described as follows: In vitro enzymatic release in human intestine S9. Conditions: Human Intestine S9 (0.5 mg/mL); substrate 2.0 μM; NADPH; 37° C.
A short description of data set [6]: In vitro enzymatic release in rat liver S9. Conditions: Rat Liver S9 (0.5 mg/mL); substrate 2.0 μM; NADPH; 37° C.
Data set [7] in a line: Pharmacokinetics of N-phthaloylglycine prodrug (61) in rats (Example 42). In kind it is in vivo, rat. Conditions: oral (61) 240 mg/kg, post dosing. On the procedure: The pharmacokinetics of the N-phthaloylglycine prodrug (61) is examined in rats. […] Serial blood samples are obtained over 24 hours following dosing and blood is processed for plasma by centrifugation. Plasma samples are stored at −80° C. until analyzed. Concentrations of N-phthaloylglycine or (61) in plasma samples are determined by LC/MS/MS.

Data set [8] concerns the target T2, IBAT (Homo sapiens, UniProt Q12908). The data set is described as follows: Electrogenic transport in Xenopus oocytes expressing IBAT. In kind it is cell-based. Conditions: relative to glycodeoxycholate. The source says:
RNA preparation: Human IBAT and LBAT Transporter cDNAs were subcloned into a modified pGEM plasmid that contains 5′ and 3′ untranslated sequences from the Xenopus β-actin gene. These sequences increase RNA stability and protein expression. Plasmid cDNA was linearized and used as template for in vitro transcription (Epicentre Technologies transcription kit, 4:1 methylated:non-methylated GTP).
Xenopus oocyte isolation. Xenopus laevis frogs were anesthetized by immersion in Tricaine ([…] in deionized water) for 15 min. Oocytes were removed and digested in frog ringer solution (90 mM NaCl, 2 mM KCl, 1 mM MgCl2, 10 mM NaHEPES, pH 7.45, no CaCl2) with 1 mg/mL collagenase (Worthington Type 3) for 80-100 min with shaking. The oocytes were washed 6 times, and the buffer changed to frog ringer solution containing CaCl2 (1.8 mM). Remaining follicle cells were removed if necessary. Cells were incubated at 16° C., and each oocyte injected with […] RNA in […] solution.
Electrophysiology measurements. Transport currents were measured 2-14 days after injection, using a standard two-electrode electrophysiology set-up (Geneclamp 500 amplifier, Digidata 1320/PCLAMP software and ADInstruments hardware and software were used for signal acquisition). Electrodes ([…]) were microfabricated using a Sutter Instrument puller and filled with 3M KCl. The bath was directly grounded (transporter currents were less than 0.3 μA). Bath flow was controlled by an automated perfusion system (ALA Scientific Instruments, solenoid valves).
For transporter pharmacology, oocytes were clamped at −60 to −90 mV, and continuous current measurements acquired using PowerLab Software and an ADInstruments digitizer. Current signals were lowpass filtered at 20 Hz and acquired at 4-8 Hz. All bath and drug-containing solutions were frog ringers solution containing CaCl2. Drugs were applied for 10-30 seconds until the induced current reached a new steady-state level, followed by a control solution until baseline currents returned to levels that preceded drug application. The difference current (baseline subtracted from peak current during drug application) reflected the net movement of charge resulting from electrogenic transport and was directly proportional to tranport rate. Recordings were made from a single oocyte for up to 60 min, enabling 30-40 separate compounds to be tested per oocyte. […]. Using this normalization procedure Vmax (i.e. maximal induced current) for different compounds tested on different oocytes could be compared.

Data set [9] in a line: In vitro enzymatic release in human plasma. Conditions: substrate 2.0 μM, no cofactors, 37° C.
Data set [10] concerns the target T3, LBAT (Homo sapiens, UniProt Q14973).
T3 construct: expressed in transfected cells; host or cells: CHO cells
The data set is described as follows: Inhibition of radiolabeled taurocholate uptake in LBAT-transfected CHO cells. It counts as cell-based. Particulars: radiolabeled competition assay in transporter-expressing CHO cells. On the procedure:
(§1) CHO cells transfected with either the IBAT or LBAT transporter were seeded into 96-well microtiter plates at 100,000 cells/well in 100 μL DMEM containing 10% serum, glutamine and Penstrep. After overnight incubation the media was removed and test compound (25 μL) added at 2× the final desired concentration. Tritiated taurocholate (50,000 CPM/well) was diluted with cold substrate to a final concentration of 5 μM and 25 μL/well of this mixture was added to the plate. After incubating for 1 h at room temperature the solution was removed and the plate washed 4× with PBS at 4° C. 200 μL/well of scintillant is added and the plate then read in a Wallac microbeta counter. The inhibition data is processed by standard methods to calculate an inhibition constant Ki for the test compound.

Data set [11] has as its target T2, IBAT. As to the kind of experiment: Inhibition of radiolabeled taurocholate uptake in IBAT-transfected CHO cells. It counts as cell-based. Particulars: radiolabeled competition assay in transporter-expressing CHO cells. On the set-up: expressed in transfected cells; host or cells: CHO cells. On the procedure:
as §1

Data set [12] deals with pancreatin. The data set is described as follows: Pancreatin stability. It counts as in vitro ADME, porcine. Particulars: gabapentin (2) released by 1% (w/v) pancreatin; prodrug 5 μM; pH 7.5; 37° C.; 60 min. On the procedure: Pancreatin Stability: Stability studies were conducted by incubating prodrug (5 μM) with 1% (w/v) pancreatin (Sigma, P-1625, from porcine pancreas) in 0.025 M Tris buffer containing 0.5 M NaCl (pH 7.5) at 37° C. for 60 min. The reaction was stopped by addition of 2 volumes of methanol. After centrifugation at 14,000 rpm for 10 min, the supernatant was removed and analyzed by LC/MS/MS.

For data set [13] the following is noted: in rats; Salach et al, Pharm. Res. 1994; cited from earlier work.

T2 sequence (Q12908 whole entry): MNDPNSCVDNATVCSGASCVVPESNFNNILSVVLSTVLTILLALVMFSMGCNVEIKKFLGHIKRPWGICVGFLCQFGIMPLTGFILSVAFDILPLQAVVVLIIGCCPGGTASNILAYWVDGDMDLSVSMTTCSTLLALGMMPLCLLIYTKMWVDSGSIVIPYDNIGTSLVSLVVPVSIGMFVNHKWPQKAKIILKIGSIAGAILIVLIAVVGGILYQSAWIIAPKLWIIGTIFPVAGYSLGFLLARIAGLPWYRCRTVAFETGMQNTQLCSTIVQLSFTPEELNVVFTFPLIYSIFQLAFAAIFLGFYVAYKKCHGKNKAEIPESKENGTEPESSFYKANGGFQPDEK
T3 sequence (Q14973 whole entry): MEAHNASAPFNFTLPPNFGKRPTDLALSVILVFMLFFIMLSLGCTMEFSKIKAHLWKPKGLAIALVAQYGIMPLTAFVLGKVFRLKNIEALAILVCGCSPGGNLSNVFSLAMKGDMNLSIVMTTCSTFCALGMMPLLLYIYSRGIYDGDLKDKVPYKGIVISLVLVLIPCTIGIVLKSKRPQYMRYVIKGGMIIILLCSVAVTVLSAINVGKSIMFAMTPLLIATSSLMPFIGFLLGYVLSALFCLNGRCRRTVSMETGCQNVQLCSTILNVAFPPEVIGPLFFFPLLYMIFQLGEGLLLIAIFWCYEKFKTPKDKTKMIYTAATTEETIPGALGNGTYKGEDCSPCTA
T1 sequence (P80561 46-329): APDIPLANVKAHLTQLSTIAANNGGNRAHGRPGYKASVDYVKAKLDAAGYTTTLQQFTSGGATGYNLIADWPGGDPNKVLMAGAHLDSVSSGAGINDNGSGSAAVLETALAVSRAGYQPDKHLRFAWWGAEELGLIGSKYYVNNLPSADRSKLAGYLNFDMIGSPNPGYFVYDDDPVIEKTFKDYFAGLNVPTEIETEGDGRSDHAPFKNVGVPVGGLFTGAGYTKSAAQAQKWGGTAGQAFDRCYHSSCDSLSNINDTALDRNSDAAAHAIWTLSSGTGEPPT

For the compound `NC(Cc1ccccc1)C(=O)NCC1(CC(=O)O)CCCCC1` (centres unmarked) [Phe-Gabapentin], the “Percent of Gabapentin Released in 60 min” value in data set [1] is on record as 24%; in [2], 19%; in data set [3] it was 1%; in [4], 21%; in [5], 5%; in [6], 1%.

Regarding `N[C@@H](CCC(=O)O)C(=O)N[C@@H](CSC(=O)CN1C(=O)c2ccccc2C1=O)C(=O)NCC(=O)O` [Compound (61), H-Glu-Cys(N-phthaloylglycyl)-Gly-OH], the “time at which liberated N-phthaloylglycine is apparent in plasma” value in data set [7] is at most 30 min.

Consider “Cholyl-Dopa-(4-pivaloyloxymethyl) [(21)]”, for which the “% Max. (GDC)” value in [8] stood at 104%. The “Percent of (20) Released in 60 min” value in [9] was determined as 90%; in [2], 75%; in data set [3] it was 70%; in data set [5] it was 95%; in data set [6] it was 35%. Also, the IC50 worked out at 0.2 µM in [10] and 91 µM in data set [11].

For the compound `CC(CCC(=O)NC(Cc1ccc(O)c(O)c1)C(=O)O)C1CCC2C3C(O)CC4CC(O)CCC4(C)C3CC(O)C12C` (centres unmarked) [(20), Cholyl-Dopa], the “% Max. (GDC)” value in [8] stood at 0%. The IC50 was 5 µM in data set [10] and 83 µM in data set [11].

Take `CC(CCC(=O)NC(Cc1ccc(O)cc1)C(=O)NCC1(CC(=O)O)CCCCC1)C1CCC2C3C(O)CC4CC(O)CCC4(C)C3CC(O)C12C` (centres unmarked) [(7h), Cholyl-Tyr-Gabapentin]: the “% (2) Released” value in data set [12] is listed as 40%.

Consider N-Phthaloylglycine, for which the half-life in data set [13] is around 10 min.

The IC50 is the midpoint of a concentration-inhibition curve. High values mean lower potency, low ones higher potency. As a reminder, the half-life is the time needed for the level to fall by half in the phase considered.
